Active and inactive are the calls of the source. No rule for the calls is given here.
Assay: mitochondrial fusion inhibitors, confirmation, cell-based, chemical genetic, wild-type and mutant (AID 1361)
Conditions: Cell-based mitochondrial fusion phenotype, imaging
[1] = mutant cells, measured here: mutant cell line IC50

| SMILES | IC50 (WT cells) | IC50 [1] |
| --- | --- | --- |
| CCC(=O)Nc1ccc(-c2nnc(SCc3ccc(C(=O)Nc4nccs4)cc3)n2CC)cc1 | > 25 µM (inactive) | > 25 µM |
| COC(=O)c1c(NC(=O)CN2CCC3(O)CCCCC3C2c2ccc(OC)cc2OC)sc(C)c1C (configuration not stated) | 14.9 µM | > 25 µM |
| Cc1ccc(C(=O)/C=C/c2c(C)nn(-c3ccccc3)c2Cl)cc1 | 20.2 µM | > 25 µM |
| COc1ccc(/C=N/N(Cc2ccccc2)c2ccccc2)cc1O | 11.6 µM | > 25 µM |
| Cc1cc(N/N=C/c2ccc(O)c(C)c2O)nc(-c2ccccc2O)n1 | > 25 µM (inactive) | > 25 µM |
| CCCCC(=O)O[C@H]1CC[C@H]2[C@@H]3CCc4cc(O)ccc4[C@H]3CC[C@]12C | 12.3 µM | > 25 µM |
| O=C(NCc1ccccn1)C(=O)Nc1nc(C23CC4CC(CC(C4)C2)C3)cs1 | 15 µM | > 25 µM |
| Cc1sc(NC(=O)c2ccco2)c(C(c2ccc(F)cc2)N2CCN(C)CC2)c1C (configuration not stated) | 14.4 µM (inactive) | > 12.5 µM |
| CCOc1ccc(-n2c(SCC(=O)Nc3cc(C)on3)nnc2-c2c[nH]c3ccccc23)cc1 | > 25 µM (inactive) | > 25 µM |
| COc1ccc(-n2ncc3c(NCc4ccco4)ncnc32)cc1 | > 25 µM (inactive) | > 25 µM |
| CCOC(=O)c1c(-c2cccs2)csc1NC(=O)C(C)(C)C | 24.5 µM | > 25 µM |
| O=C(Nn1c(-c2ccccc2)nc2ccccc2c1=O)C1CCC1 | > 25 µM (inactive) | > 25 µM |
| CCn1c(C(=O)N2CCc3ccccc3C2)cc2oc3ccccc3c21 | 8.84 µM | > 25 µM |
| COc1ccc(NC(=O)CN(c2ccc(C)cc2)S(C)(=O)=O)c(OC)c1 | > 25 µM (inactive) | > 25 µM |
| CCCCCc1nc2sc3c(c2c(=O)n1NC(=O)c1ccc([N+](=O)[O-])cc1)CC(C)(C)OC3 | 15.5 µM | > 25 µM |
| COc1ccc(CN(C)C2c3ccccc3-c3ccccc32)cc1 | 16.7 µM | 17 µM |
| Cc1nnc(SCC(=O)N2c3ccccc3C(C)(c3ccc(Cl)cc3)CC2(C)C)s1 (configuration not stated) | 5.21 µM | > 25 µM |
| COC(=O)c1cn(C(=O)OC)c2ccccc12 | > 25 µM (inactive) | > 25 µM |
| CCc1cccc(CC)c1NC(=S)NCCc1c(C)[nH]c2ccc(C)cc12 | 9.59 µM | > 25 µM |
| COc1ccc2ccc3c(c2c1)N=C[C@]1(O3)N(C)c2ccccc2C1(C)C | 8.07 µM | > 25 µM |
| N#CC1=C(N)NC(SCC(=O)c2ccc(Br)cc2)=C(C#N)C12CCCCC2 | 19.4 µM | > 25 µM |

| SMILES | IC50 (WT cells) | IC50 [1] |
| --- | --- | --- |
| Cc1ccc(C(C)C)c(OCc2ccc(C(=O)N/N=C/c3ccc(O)cc3O)cc2)c1 | > 25 µM (inactive) | > 25 µM |
| CCn1c2ccccc2c2cc(/C=N/NC(=O)c3cccc(C)c3)ccc21 | > 25 µM (inactive) | > 25 µM |
| CCc1nnc(NC(=O)c2ccc(S(=O)(=O)N(CC(C)C)CC(C)C)cc2)o1 | 22.5 µM | > 25 µM |
| CCc1nnc(NC(=O)c2cccc(C(=O)Nc3nnc(CC)s3)n2)s1 | 23.8 µM | > 25 µM |
| CC(C)CCNC(=O)CN(CC1CCCO1)C(=O)CCC(=O)Nc1ccccn1 (configuration not stated) | > 25 µM (inactive) | > 25 µM |
| O=C(N/N=C/c1c(Cl)cccc1Cl)c1n[nH]c2c1CCCC2 | > 25 µM (inactive) | > 25 µM |
| CC(Oc1ccc(Cl)cc1Cl)C(=O)NCCCCc1ccccc1 (configuration not stated) | > 25 µM (inactive) | > 25 µM |
| CCc1ccccc1N(CC)C(=O)CCc1nc(-c2ccc(C)cc2)no1 | 19.6 µM | 23.2 µM |
| COc1ccc(CCn2nnnc2C(C(C)C)N2CCN(c3ncccn3)CC2)cc1OC (configuration not stated) | > 25 µM (inactive) | > 25 µM |
| C[C@]1(C(=O)NCCCNc2ncc(C(F)(F)F)cc2Cl)C=C[C@@H](Cc2ccccc2)N1C(=O)c1ccccc1 | 11.9 µM | > 25 µM |
| COc1ccc(-c2cc3nc(-c4ccccc4)cc(N4CCC(O)CC4)n3n2)cc1 | > 25 µM (inactive) | > 25 µM |
| CC1Cc2ccccc2N1C(=O)Cn1c(=O)cc(O)c2ccccc21 (configuration not stated) | > 25 µM (inactive) | > 25 µM |
| COc1cc(NC(=S)NCCC(c2ccccc2)c2ccccc2)cc(OC)c1 | 4.78 µM | > 25 µM |
| CC(C)N(Cc1nc(-c2ccc(Cl)cc2)no1)C(=O)CCC1CCCC1 | 13.7 µM | > 25 µM |
| O=C(N=C1SCC(=O)N1c1ccccc1Cl)c1ccccc1 | > 25 µM (inactive) | > 25 µM |
| Cc1ccc(CC2SC(=Nc3ccccc3)N(c3ccccc3)C2=O)cc1 (configuration not stated) | 18.7 µM | > 25 µM |
| CC(=O)N1N=C(c2ccc(C)cc2)OC1c1ccc(Br)cc1 (configuration not stated) | 21 µM | > 25 µM |
| O=c1[nH]c(=O)n(Cc2ccco2)c2c1C(C(F)(F)F)(C(F)(F)F)N=C(Cc1ccccc1)N2 | > 25 µM (inactive) | > 12.5 µM |
| S=C(Nc1ccccc1Oc1ccccc1)Nc1cccc(Cl)c1Cl | 12.6 µM | 22.4 µM |
| COC(=O)CP(=O)(c1ccccc1)c1ccccc1 | > 25 µM (inactive) | > 25 µM |
| CC(C)(C)n1nnnc1C(c1cccnc1)N(Cc1ccccc1)Cc1cccs1 (configuration not stated) | 9.97 µM | > 25 µM |

| SMILES | IC50 (WT cells) | IC50 [1] |
| --- | --- | --- |
| Cc1ccc(Cn2ncc3c(N4CCN(c5ccccc5C)CC4)ncnc32)cc1 | 7.78 µM | 24.7 µM |
| Cc1cc(=O)oc(C)c1C(=O)Nc1ccc2nsnc2c1 | > 25 µM (inactive) | > 25 µM |
| CC1CN(C(=O)N(C)C)CCN1C(=O)N(C)C (configuration not stated) | > 25 µM (inactive) | > 25 µM |
| CC(C)(C)NC(=O)NC(=O)COC(=O)Cc1coc2ccc3ccccc3c12 | 21.2 µM | > 25 µM |
| CCn1cc(C(=O)N2CCc3ccccc32)c(=O)c2cc(S(=O)(=O)N(C)C3CCCCC3)ccc21 | > 25 µM (inactive) | > 25 µM |
| CCC(=O)Nc1ccc(Br)c(Cl)c1 | > 25 µM (inactive) | > 25 µM |
| O=C(OC(c1ccc(NS(=O)(=O)c2ccccc2)cc1)(C(F)(F)F)C(F)(F)F)c1ccccc1 | 18.2 µM | > 25 µM |
| CC12CCC(c3c(C(=O)O)nn(-c4ccc(F)cc4)c31)C2(C)C (configuration not stated) | > 25 µM (inactive) | > 25 µM |
| Cc1cccc(COCC(CC(C)C)N2CCN(C(=O)c3ccc(C(C)(C)C)cc3)CCC2=O)c1 (configuration not stated) | 14.7 µM | > 25 µM |
| Cc1cccc(-c2nnc(SCc3ccccc3)o2)c1 | > 25 µM (inactive) | > 25 µM |
| O=C(OCc1nnc(-c2ccccc2)o1)C12CC3CC(CC(Br)(C3)C1)C2 | 24.1 µM | > 25 µM |
| CCOC(=O)C1=NN(c2cccc(C)c2)C2(S1)SC(C(C)=O)=C(C)N2c1ccccc1 (configuration not stated) | 8.2 µM | > 25 µM |
| CCOc1cccc(-c2nn(-c3ccccc3)cc2/C=C(/C#N)C(=O)NCCCn2ccnc2)c1 | > 25 µM (inactive) | > 25 µM |
| COc1ccccc1NC(=O)CC1S/C(=N/N=C2\CCCc3ccccc32)NC1=O (configuration not stated) | 19.6 µM | > 25 µM |
| O=c1c2cn[nH]c2nc(SCc2ccccc2F)n1-c1ccc(Br)cc1 | 11.2 µM | 23.8 µM |
| Cc1cc(-c2sccc2C)nc(-n2cccc2)n1 | > 25 µM (inactive) | > 25 µM |
| CCC1=NN2C(=N)/C(=C\c3cccn3-c3ccc(C)cc3C)C(=O)N=C2S1 | 13.2 µM | > 25 µM |
| CCCCN(CCCC)CCNC(=O)Cc1nc2c(c(=O)[nH]c(=O)n2C)n1C | > 25 µM (inactive) | > 25 µM |
| NS(=O)(=O)c1ccc(N2N=C(c3ccccc3)CC2c2ccccc2)cc1 (configuration not stated) | 12.1 µM | > 25 µM |
| Cc1cc(C(=O)Nn2c(C3CCCCC3)nc3ccccc3c2=O)ccc1[N+](=O)[O-] | 16.7 µM | > 25 µM |
| CCC(C(=O)OCC(=O)Nc1ccccc1-c1ccccc1)c1ccccc1 (configuration not stated) | 17.3 µM | > 25 µM |

| SMILES | IC50 (WT cells) | IC50 [1] |
| --- | --- | --- |
| COC(=O)[C@H](Cc1ccccc1)NC(=O)O[C@H]1C(=O)c2ccc(OC)cc2O[C@@H]1c1ccc2c(c1)OCO2 | 12.9 µM | > 25 µM |
| COC(=O)C1=C(CSc2nc3ccccc3o2)NC(=O)NC1c1cc(C)ccc1C (configuration not stated) | > 25 µM (inactive) | > 25 µM |
| Cc1nn(C(C)(C)C)c(OC(=O)c2cccs2)c1Sc1ccccc1 | 22.1 µM | > 25 µM |
| CCOc1ccc(Oc2c(/C=N/NC(=O)COc3ccccc3OC)c(C)nn2-c2ccccc2)cc1 | 14.8 µM | > 25 µM |
| NS(=O)(=O)c1ccc(N2N=C(c3ccccc3)CC2c2ccc(F)cc2)cc1 (configuration not stated) | 12 µM | > 25 µM |
| O=C1CCCCC1C(Nc1ccc(Br)cc1)c1ccccc1 (configuration not stated) | 20.5 µM | > 25 µM |
| S=C1NC(C23CC4CC(CC(C4)C2)C3)=CC(c2ccc3c(c2)OCO3)N1 (configuration not stated) | 4.6 µM | > 25 µM |
| O=[N+]([O-])c1ccccc1/C=N/n1c(C2CCCCC2)n[nH]c1=S | > 25 µM (inactive) | > 25 µM |
| CC(C)(C)[C@@H]1C=C(C(=O)N2CCN(Cc3ccccc3)CC2)O[C@H](OCc2ccc(CO)cc2)C1 | 23.8 µM | > 25 µM |
| Cc1nc(N2CCCCC2)c2c(-c3cccs3)csc2n1 | 22.4 µM | > 25 µM |
| CCCCc1cc2c(s1)CCCC/C2=N/O | > 25 µM (inactive) | > 25 µM |
| S=C(NCCNCc1ccccc1)NC1CCCCC1 | 13.6 µM | > 25 µM |
| CC1CCCN(C(=O)CSc2nnc(-c3cccnc3)n2C2CCCCC2)C1 (configuration not stated) | > 25 µM (inactive) | > 25 µM |
| CCOc1ccc(C(C(=O)NC2CCCC2)N(Cc2ccccc2)C(=O)c2nsc(Cl)c2Cl)cc1 (configuration not stated) | 12 µM | > 25 µM |
| Oc1cccc(C2c3[nH]c4ccccc4c3CCN2Cc2cnn(-c3ccccc3)c2)c1 (configuration not stated) | > 25 µM (inactive) | > 25 µM |
| COCCn1c(=S)[nH]c2cc(C(=O)N3CCc4ccccc43)ccc2c1=O | > 25 µM (inactive) | > 25 µM |
| CC1(C)CC(=O)C(C=NCc2cccnc2)=C(O)C1 | > 25 µM (inactive) | > 25 µM |
| O=C(NC(=S)Nc1ccccc1N1CCCCC1)c1ccccc1 | 24.9 µM (inactive) | > 25 µM |
